According to patent publication US10813944B2, “Cyclodextrins as procoagulants” (STICHTING SANQUIN BLOEDVOORZIENING, priority 2016, dated 2020):

Columns and labels:
[1] = test system: thrombin generation in pooled normal plasma; experiment: Calibrated Automated Thrombogram thrombin generation assay in pooled normal plasma; assay type: biochemical, human; settings: no anticoagulant; cyclodextrin 100 μM unless otherwise indicated; 1 pM TF
Experimental: (§1) FIGS. 3-8, 12, 14-19 and 22-27: Pooled normal plasma was spiked with cyclodextrins (100 μM, unless otherwise indicated) and anticoagulants. The concentrations of the anticoagulants were 100 ng/ml for dabigatran (A), 100 ng/ml for rivaroxaban (B), 60 ng/ml for apixaban (C), 60 ng/ml for edoxaban (D). The plasmas were subjected to thrombin generation analysis as described in the Materials and Methods section with 1 pM tissue factor (TF) as initiator of coagulation.
(§2) The Calibrated Automated Thrombogram® assays the generation of thrombin in clotting plasma using a microtiter plate reading fluorometer (Fluoroskan Ascent, ThermoLab systems, Helsinki, Finland) and Thrombinoscope® software (Thrombinoscope BV, Maastricht, The Netherlands). The assay was carried out as described by Hemker et al. (Pathofysiol. IIaemost. Thromb. 2003, 33, 4-15), and the Thrombinoscope® manual. Coagulation was triggered by recalcification in the presence of 1 or 5 pM recombinant human tissue factor (Innovin®, Siemens, Marburg, Germany), 4 μM phospholipids, and 417 μM fluorogenic substrate Z-Gly-Gly-Arg-AMC (Bachem, Bubendorf, Switzerland). Fluorescence was monitored using the Fluoroskan Ascent fluorometer (ThermoLabsystems, Helsinki, Finland), and the lag time, peak thrombin, velocity index and area under the curve (ETP) were calculated using the Thrombinoscope® software (Thrombinoscope BV).
Thrombin generation analyses were performed in pooled normal plasma with and without the addition of anticoagulants.

[2] = test system: mice anticoagulated with rivaroxaban; experiment: In vivo saphenous vein bleeding model in mice anticoagulated with rivaroxaban
Experimental: FIG. 29: In vivo analysis of procoagulant potential of OK-1111 and OKL-1147. Except for controls, animals were treated with rivaroxaban for 4 days and cyclodextrins were administered 5 min prior bleeding assay.
All animal protocols were approved by the Institutional Animal Care and Use Committee of the University of North Carolina. C57BL6/J mice were purchased from Charles Rivers Laboratories (Willmington, Mass.). Bleeding studies were done essentially as previously described Pastoft et al. (Haemophilia 2012; 18:782-8). Mice were anesthetized with isoflurane throughout all procedures. The hair on the ventral side of both hind limbs was removed. The animals were placed supine on a temperature and ECG monitoring board. The paws were gently restrained by looping soft polyethylene tubing around them and attaching the tubing to the ECG board. The skin on the left and right ventral hind limb was incised which exposes a length of the saphenous neurovascular bundle; the bundle was covered with normal saline to prevent drying. To assess haemostasis, the right saphenous vein was transected by piercing it with a 23-G needle followed by a longitudinal incision made in the distal portion of the vessel. Blood was gently wicked away until haemostasis occurred. The clot was then removed to restart bleeding and the blood was again wicked away until haemostasis occurs again. Clot disruption was repeated after every incidence of haemostasis for 30 minutes. Mice were fed chow that contained 0.1 mg rivaroxaban per g of chow. The mice were on this diet for 4 days to allow them to reach a steady state. Cyclodextrins were administered by a tail vein injection 5 minutes before the start of the bleeding assay. Two parameters were measured: 1) the number of times that haemostasis occurs in a 30 minute period, and 2) the time required for each haemostasis.

[3] = test system: plasma of a hemophilia A patient containing anti-FVIII antibodies; experiment: Thrombin generation in plasma of a hemophilia A patient with anti-factor VIII antibodies; assay type: biochemical, human; settings: anti-FVIII antibodies 50 BU
Experimental: FIG. 28: Effect of OKL-1111 (A), OKL-1180 (B) and OKL-1187 (C) on coagulation in plasma of a hemophilia A patient with anti-factor VIII antibodies. BU=Bethesda Units.
as §2
The patient had developed antibodies against factor VIII prior to plasma withdrawal. The plasma contained high levels of anti-FVIII antibodies (50 BU).

[4] = test system: plasma deficient in coagulation factor VIII; experiment: Thrombin generation assay in plasma deficient in coagulation factor VIII; assay type: biochemical, human
Experimental: FIG. 20: Plasma deficient in coagulation factor VIII was spiked with cyclodextrin OKL-1111 (A), OKL-1180 (B), and OKL-1187 (C) at the indicated concentrations.
as §2

[5] = test system: plasma deficient in coagulation factor IX; experiment: Thrombin generation assay in plasma deficient in coagulation factor IX; assay type: biochemical, human
Experimental: as §2

[6] = test system: thrombin generation in pooled normal plasma spiked with anticoagulants; experiment: Thrombin generation assay in pooled normal plasma spiked with anticoagulants; assay type: biochemical, human; settings: cyclodextrin 100 μM, 1 pM TF; for effect on the anticoagulant effect of apixaban: apixaban 60 ng/ml; for effect on the anticoagulant effect of dabigatran: dabigatran 100 ng/ml; for effect on the anticoagulant effect of edoxaban: edoxaban 60 ng/ml; for effect on the anticoagulant effect of rivaroxaban: rivaroxaban 100 ng/ml
Experimental: as §1
FIG. 9: Pooled normal plasma was spiked with OKL-1111 (100 μM, unless otherwise indicated (A)) and anticoagulants (B-E). The concentrations of the anticoagulants were 100 ng/ml for dabigatran (B), 100 ng/ml for rivaroxaban (C), 60 ng/ml for apixaban (D), 60 ng/ml for edoxaban (E). The plasmas were subjected to thrombin generation analysis as described in the Materials and Methods section with 1 pM tissue factor (TF) as initiator of coagulation.
FIG. 10: Pooled normal plasma was spiked with OKL-1111 (100 μM) and anticoagulants (A-F). The concentrations of the anticoagulants were 2 μg/ml for fondaparinux (A), 0.4 U/ml for nadroparin (B), 0.1 U/ml for tinzaparin (C), 0.03 U/ml for unfractionated heparin (UFH) (D), 0.5 U/ml for hirudin (E) and 10 μg/ml for bivalirudin (F). The plasmas were subjected to thrombin generation analysis as described in the Materials and Methods section with 1 pM tissue factor (TF) as initiator of coagulation.
as §2

With `NCC1OC2OC3C(CN)OC(OC4C(CN)OC(OC5C(CN)OC(OC6C(CN)OC(OC7C(CN)OC(OC8C(CN)OC(OC9C(CN)OC(OC1C(O)C2O)C(O)C9O)C(O)C8O)C(O)C7O)C(O)C6O)C(O)C5O)C(O)C4O)C(O)C3O` (centres unmarked) [OKL-1147, reference compound] the “procoagulant effect in normal plasma” value [1] was “no procoagulant effect” and the clotting times ([2]; mice fed rivaroxaban for 4 days, cyclodextrin by tail vein injection 5 min before bleeding assay, OKL-1111 dose expected to give 25 μM in plasma) was “without any significant effect”.
`O=C(O)CCCCCCCSCC1OC2OC3C(CSCCCCCCCC(=O)O)OC(OC4C(CSCCCCCCCC(=O)O)OC(OC5C(CSCCCCCCCC(=O)O)OC(OC6C(CSCCCCCCCC(=O)O)OC(OC7C(CSCCCCCCCC(=O)O)OC(OC8C(CSCCCCCCCC(=O)O)OC(OC1C(O)C2O)C(O)C8O)C(O)C7O)C(O)C6O)C(O)C5O)C(O)C4O)C(O)C3O` (centres unmarked) [OKL-1180] was tested, and the “thrombin generation in hemophilia A patient plasma” value [3] was “concentration-dependently stimulated thrombin generation”, the “procoagulant effect in factor VIII deficient plasma” value [4] was “procoagulant effects” and the “procoagulant effect in normal plasma” value [1] was “procoagulant activity”. For the same compound, the “procoagulant activity in factor IX deficient plasma” value [5] was “procoagulant activity”.
With `O=C(O)CCCCCSCC1OC2OC3C(CSCCCCCC(=O)O)OC(OC4C(CSCCCCCC(=O)O)OC(OC5C(CSCCCCCC(=O)O)OC(OC6C(CSCCCCCC(=O)O)OC(OC7C(CSCCCCCC(=O)O)OC(OC1C(O)C2O)C(O)C7O)C(O)C6O)C(O)C5O)C(O)C4O)C(O)C3O` (stereo not drawn) [OKL-1187, Alpha-per-S—C6-acid] the “thrombin generation in hemophilia A patient plasma” value [3] was “concentration-dependently stimulated thrombin generation”, the “procoagulant effect in factor VIII deficient plasma” value [4] was “procoagulant effects” and the “procoagulant effect in normal plasma” value [1] was “very strong procoagulant effect”. For the same compound, the “effect on the anticoagulant effect of apixaban” value (“effect … of apixaban” below) [6] was “strongly antagonized”, the “effect on the anticoagulant effect of dabigatran” value (“effect … of dabigatran” below) [6] was “strongly antagonized” and the “effect on the anticoagulant effect of edoxaban” value (from here on “effect … of edoxaban”) [6] was “strongly antagonized”. For the same compound, the “effect on the anticoagulant effect of rivaroxaban” value (“effect … of rivaroxaban” for short) [6] was “strongly antagonized”.
With `OCCCCSCC1OC2OC3C(CO)OC(OC4C(CO)OC(OC5C(CO)OC(OC6C(CO)OC(OC7C(CO)OC(OC8C(CO)OC(OC1C(O)C2O)C(O)C8O)C(O)C7O)C(O)C6O)C(O)C5O)C(O)C4O)C(O)C3O` (centres unmarked) [OKL-1189] the “procoagulant effect in factor VIII deficient plasma” value [4] was “procoagulant effects”, the “procoagulant effect in normal plasma” value [1] was “strong procoagulant activity” and the “procoagulant activity in factor IX deficient plasma” value [5] was “procoagulant activity”. For the same compound, the “effect … of apixaban” value [6] was “strongly antagonized”, the “effect … of dabigatran” value [6] was “strongly antagonized” and the “effect … of edoxaban” value [6] was “strongly antagonized”. For the same compound, the “effect … of rivaroxaban” value [6] was “strongly antagonized”.
With `OCCCCSCC1OC2OC3C(CO)OC(OC4C(CO)OC(OC5C(CO)OC(OC6C(CO)OC(OC7C(CO)OC(OC8C(CO)OC(OC9C(CO)OC(OC1C(O)C2O)C(O)C9O)C(O)C8O)C(O)C7O)C(O)C6O)C(O)C5O)C(O)C4O)C(O)C3O` (centres unmarked) [OKL-1191] the “procoagulant effect in factor VIII deficient plasma” value [4] was “procoagulant effects”, the “procoagulant effect in normal plasma” value [1] was “Strong Procoagulant Activity” and the “procoagulant activity in factor IX deficient plasma” value [5] was “procoagulant activity”. The “effect … of apixaban” value [6] was “Antagonized”, the “effect … of dabigatran” value [6] was “Antagonized” and the “effect … of edoxaban” value [6] was “Antagonized”. For the same compound, the “effect … of rivaroxaban” value [6] was “Antagonized”.
With `O=C(NC[C@H]1CN(c2ccc(N3CCOCC3=O)cc2)C(=O)O1)c1ccc(Cl)s1` [rivaroxaban] the “number of clots in 30 minutes” value ([2]; mice fed rivaroxaban (0.1 mg per g of chow, 4 days), no cyclodextrin, non-anticoagulated about 20-25) was 10-13 clots and the bleeding time ([2]; mice fed rivaroxaban versus non-anticoagulated mouse) was “roughly doubled”.
